According to PubChem BioAssay (NCI):
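In this assay, cells in 96-well plates receive the compound at five concentrations for 48 hours. Endpoints are linearly interpolated between the surrounding concentrations. Definition used: TGI = concentration required for complete inhibition of growth.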

Tests used:
Assay in all cases: NCI-60 cell line screen, 48 h
786-0 renal = system: 786-0 renal
A498 renal = system: A498 renal
A549 NSCLC = system: A549 NSCLC
ACHN renal = system: ACHN renal
BT-549 breast = system: BT-549 breast
CAKI-1 renal = system: CAKI-1 renal
CCRF-CEM leukemia = system: CCRF-CEM leukemia
COLO 205 colon = system: COLO 205 colon
DU-145 prostate = system: DU-145 prostate
EKVX NSCLC = system: EKVX NSCLC
HCC-2998 colon = system: HCC-2998 colon
HCT-116 colon = system: HCT-116 colon
HCT-15 colon = system: HCT-15 colon
HOP-62 NSCLC = system: HOP-62 NSCLC
HOP-92 NSCLC = system: HOP-92 NSCLC
HS 578T breast = system: HS 578T breast
HT29 colon = system: HT29 colon
IGROV1 ovarian = system: IGROV1 ovarian
KM12 colon = system: KM12 colon
LOX IMVI melanoma = system: LOX IMVI melanoma
M14 melanoma = system: M14 melanoma
MALME-3M melanoma = system: MALME-3M melanoma
MCF7 breast = system: MCF7 breast
MDA-MB-231 breast = system: MDA-MB-231 breast
MDA-MB-435 = system: MDA-MB-435
MDA-N = system: MDA-N
MOLT-4 leukemia = system: MOLT-4 leukemia
NCI-H226 lung = system: NCI-H226 lung
NCI-H23 lung = system: NCI-H23 lung
NCI-H460 lung = system: NCI-H460 lung
NCI-H522 lung = system: NCI-H522 lung
NCI/ADR-RES ovarian = system: NCI/ADR-RES ovarian
OVCAR-3 ovarian = system: OVCAR-3 ovarian
OVCAR-4 ovarian = system: OVCAR-4 ovarian
OVCAR-5 ovarian = system: OVCAR-5 ovarian
OVCAR-8 ovarian = system: OVCAR-8 ovarian
PC-3 prostate = system: PC-3 prostate
RPMI-8226 leukemia = system: RPMI-8226 leukemia
RXF 393 renal = system: RXF 393 renal
SF-268 CNS = system: SF-268 CNS
SF-295 CNS = system: SF-295 CNS
SF-539 CNS = system: SF-539 CNS
SK-MEL-2 melanoma = system: SK-MEL-2 melanoma
SK-MEL-28 melanoma = system: SK-MEL-28 melanoma
SK-MEL-5 melanoma = system: SK-MEL-5 melanoma
SK-OV-3 ovarian = system: SK-OV-3 ovarian
SN12C renal = system: SN12C renal
SNB-19 CNS = system: SNB-19 CNS
SNB-75 CNS = system: SNB-75 CNS
SR leukemia = system: SR leukemia
SW-620 colon = system: SW-620 colon
T-47D breast = system: T-47D breast
TK-10 renal = system: TK-10 renal
U251 CNS = system: U251 CNS
UACC-257 melanoma = system: UACC-257 melanoma
UACC-62 melanoma = system: UACC-62 melanoma
UO-31 renal = system: UO-31 renal
HL-60(TB) leukemia = system: HL-60(TB) leukemia
K-562 leukemia = system: K-562 leukemia

COC1=C(Cl)C(=O)c2c(O)ccc(O)c2C1=O
TGI (786-0 renal): 0.864 µM
TGI (A498 renal): 2.63 µM
TGI (A549 NSCLC): 19.3 µM
TGI (ACHN renal): 2.31 µM
TGI (BT-549 breast): 3.31 µM
TGI (CAKI-1 renal): 1.6 µM
TGI (CCRF-CEM leukemia): 0.213 µM
TGI (COLO 205 colon): 0.53 µM
TGI (DU-145 prostate): 6.83 µM
TGI (EKVX NSCLC): 10.6 µM
TGI (HCC-2998 colon): 27.3 µM
TGI (HCT-116 colon): 1.34 µM
TGI (HCT-15 colon): 3.23 µM
TGI (HOP-62 NSCLC): 2.31 µM
TGI (HOP-92 NSCLC): 3.61 µM
TGI (HS 578T breast): 4.96 µM
TGI (HT29 colon): 11.8 µM
TGI (IGROV1 ovarian): 3.72 µM
TGI (KM12 colon): 23.5 µM
TGI (LOX IMVI melanoma): 3.63 µM
TGI (M14 melanoma): 1.28 µM
TGI (MALME-3M melanoma): 1.1 µM
TGI (MCF7 breast): 3.29 µM
TGI (MDA-MB-231 breast): 3.19 µM
TGI (MDA-MB-435): 3.13 µM
TGI (MDA-N): 4.8 µM
TGI (MOLT-4 leukemia): 0.489 µM
TGI (NCI-H226 lung): 26.1 µM
TGI (NCI-H23 lung): 4.62 µM
TGI (NCI-H460 lung): 24.4 µM
TGI (NCI-H522 lung): 0.564 µM
TGI (NCI/ADR-RES ovarian): 2.32 µM
TGI (OVCAR-3 ovarian): 1.04 µM
TGI (OVCAR-4 ovarian): 3.66 µM
TGI (OVCAR-5 ovarian): 7.49 µM
TGI (OVCAR-8 ovarian): 4.78 µM
TGI (PC-3 prostate): 9.17 µM
TGI (RPMI-8226 leukemia): 1.45 µM
TGI (RXF 393 renal): 2.69 µM
TGI (SF-268 CNS): 6.25 µM
TGI (SF-295 CNS): 20.3 µM
TGI (SF-539 CNS): 1.53 µM
TGI (SK-MEL-2 melanoma): 3.25 µM
TGI (SK-MEL-28 melanoma): 6.73 µM
TGI (SK-MEL-5 melanoma): 2.75 µM
TGI (SK-OV-3 ovarian): 29.4 µM
TGI (SN12C renal): 2.74 µM
TGI (SNB-19 CNS): 17.1 µM
TGI (SNB-75 CNS): 17.1 µM
TGI (SR leukemia): 1.3 µM
TGI (SW-620 colon): 0.46 µM
TGI (T-47D breast): 3.61 µM
TGI (TK-10 renal): 2.4 µM
TGI (U251 CNS): 11.9 µM
TGI (UACC-257 melanoma): 3.41 µM
TGI (UACC-62 melanoma): 4.12 µM
TGI (UO-31 renal): 3.71 µM

O=c1[nH]c2nccn2c2c1SCCN2
TGI (786-0 renal): > 100 µM
TGI (A498 renal): > 100 µM
TGI (A549 NSCLC): > 100 µM
TGI (ACHN renal): > 100 µM
TGI (BT-549 breast): > 100 µM
TGI (CAKI-1 renal): > 100 µM
TGI (CCRF-CEM leukemia): > 100 µM
TGI (COLO 205 colon): > 100 µM
TGI (DU-145 prostate): > 100 µM
TGI (EKVX NSCLC): > 100 µM
TGI (HCC-2998 colon): > 100 µM
TGI (HCT-116 colon): > 100 µM
TGI (HCT-15 colon): > 100 µM
TGI (HL-60(TB) leukemia): > 100 µM
TGI (HOP-62 NSCLC): > 100 µM
TGI (HS 578T breast): > 100 µM
TGI (HT29 colon): > 100 µM
TGI (IGROV1 ovarian): > 100 µM
TGI (K-562 leukemia): > 100 µM
TGI (KM12 colon): > 100 µM
TGI (LOX IMVI melanoma): > 100 µM
TGI (M14 melanoma): > 100 µM
TGI (MALME-3M melanoma): > 100 µM
TGI (MCF7 breast): > 100 µM
TGI (MDA-MB-435): > 100 µM
TGI (MDA-N): > 100 µM
TGI (MOLT-4 leukemia): > 100 µM
TGI (NCI-H226 lung): > 100 µM
TGI (NCI-H23 lung): > 100 µM
TGI (NCI-H460 lung): > 100 µM
TGI (NCI-H522 lung): > 100 µM
TGI (NCI/ADR-RES ovarian): > 100 µM
TGI (OVCAR-3 ovarian): > 100 µM
TGI (OVCAR-4 ovarian): > 100 µM
TGI (OVCAR-5 ovarian): > 100 µM
TGI (OVCAR-8 ovarian): > 100 µM
TGI (PC-3 prostate): > 100 µM
TGI (RPMI-8226 leukemia): > 100 µM
TGI (RXF 393 renal): > 100 µM
TGI (SF-268 CNS): > 100 µM
TGI (SF-295 CNS): > 100 µM
TGI (SF-539 CNS): > 100 µM
TGI (SK-MEL-2 melanoma): > 100 µM
TGI (SK-MEL-28 melanoma): > 100 µM
TGI (SK-MEL-5 melanoma): > 100 µM
TGI (SN12C renal): > 100 µM
TGI (SNB-19 CNS): > 100 µM
TGI (SNB-75 CNS): > 100 µM
TGI (SR leukemia): > 100 µM
TGI (SW-620 colon): > 100 µM
TGI (T-47D breast): > 100 µM
TGI (TK-10 renal): > 100 µM
TGI (U251 CNS): > 100 µM
TGI (UACC-257 melanoma): > 100 µM
TGI (UACC-62 melanoma): > 100 µM
